From ChEMBL document CHEMBL1201862, “PubChem BioAssay data set” (2004)
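Briefly, cells in 96-well plates were exposed to five compound concentrations for 48 h, and endpoints were estimated by linear interpolation. GI50 is the concentration that inhibits growth by half.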 Active and inactive are the calls of the source. No stated cut-off is given here; in the data, active = GI50 up to about 1.1 µM and inactive = higher.

Key:
Experiment in all cases: NCI-60 cell line screen, 48 h
A498 = tested on: A498
A549 = tested on: A549
ACHN = tested on: ACHN
COLO 205 = tested on: COLO 205
HCT-116 = tested on: HCT-116
HOP-62 = tested on: HOP-62
IGROV-1 = tested on: IGROV-1
M14 = tested on: M14
MCF7 = tested on: MCF7
MOLT-4 = tested on: MOLT-4
NCI-H226 = tested on: NCI-H226
OVCAR-3 = tested on: OVCAR-3
PC-3 = tested on: PC-3
SF-268 = tested on: SF-268
SF-295 = tested on: SF-295
SF-539 = tested on: SF-539
SK-MEL-5 = tested on: SK-MEL-5
SK-OV-3 = tested on: SK-OV-3
SN12C = tested on: SN12C
DLD-1 = tested on: DLD-1

For `CN(C)c1ccc(/C=C/C=C(/C#N)c2ccccc2)cc1`, the GI50 (A498) was 24.3 µM (inactive), the GI50 (A549) was 32.1 µM (inactive) and the GI50 (ACHN) was 34.4 µM (inactive). For the same compound, the GI50 (COLO 205) was 20.4 µM (inactive), the GI50 (HCT-116) was 16.4 µM (inactive) and the GI50 (HOP-62) was 19 µM (inactive). For the same compound, the GI50 (IGROV-1) was 21.4 µM (inactive), the GI50 (M14) was 15.8 µM (inactive) and the GI50 (MCF7) was 17.7 µM (inactive). For the same compound, the GI50 (MOLT-4) was 11.8 µM (inactive), the GI50 (NCI-H226) was 53.1 µM (inactive) and the GI50 (OVCAR-3) was 9.91 µM (inactive). For the same compound, the GI50 (PC-3) was 39.3 µM (inactive), the GI50 (SF-268) was 37.3 µM (inactive) and the GI50 (SF-295) was 26.8 µM (inactive). For the same compound, the GI50 (SF-539) was 16.4 µM (inactive), the GI50 (SK-MEL-5) was 14.5 µM (inactive) and the GI50 (SK-OV-3) was 34.8 µM (inactive). For the same compound, the GI50 (SN12C) was 45.4 µM (inactive).
For `Nc1nc2[nH]cc(CCc3ccc(C(=O)N[C@@H](CCC(=O)O)C(=O)O)cc3)c2c(=O)[nH]1` [PEMETREXED], the GI50 (A498) was 0.27 µM (active), the GI50 (A549) was 1.4 µM (inactive) and the GI50 (ACHN) was 0.0255 µM (active). The GI50 (COLO 205) was > 100 µM (inactive), the GI50 (HCT-116) was 0.0597 µM (active) and the GI50 (HOP-62) was > 100 µM (inactive). The GI50 (IGROV-1) was > 100 µM (inactive), the GI50 (M14) was > 100 µM (inactive) and the GI50 (MCF7) was < 0.0147 µM (active). The GI50 (MOLT-4) was 0.0695 µM (active), the GI50 (NCI-H226) was > 100 µM (inactive) and the GI50 (OVCAR-3) was > 100 µM (inactive). The GI50 (PC-3) was > 100 µM (inactive), the GI50 (SF-268) was 0.387 µM (active) and the GI50 (SF-295) was 0.418 µM (active). For the same compound, the GI50 (SF-539) was < 0.01 µM (active), the GI50 (SK-MEL-5) was > 100 µM (inactive) and the GI50 (SK-OV-3) was > 100 µM (inactive). For the same compound, the GI50 (SN12C) was > 100 µM (inactive).
With `COC(=O)CCc1cc(OC)c2oc(-c3ccc(OC)c(OC)c3)c(CO)c2c1` the GI50 (A498) was > 100 µM (inactive), the GI50 (A549) was > 100 µM (inactive) and the GI50 (ACHN) was > 100 µM (inactive). For the same compound, the GI50 (COLO 205) was > 100 µM (inactive), the GI50 (HCT-116) was > 100 µM (inactive) and the GI50 (HOP-62) was > 100 µM (inactive). For the same compound, the GI50 (IGROV-1) was > 100 µM (inactive), the GI50 (M14) was > 100 µM (inactive) and the GI50 (MCF7) was > 100 µM (inactive). For the same compound, the GI50 (MOLT-4) was 95.5 µM (inactive), the GI50 (NCI-H226) was > 100 µM (inactive) and the GI50 (OVCAR-3) was > 100 µM (inactive). For the same compound, the GI50 (PC-3) was > 100 µM (inactive), the GI50 (SF-268) was > 100 µM (inactive) and the GI50 (SF-295) was > 100 µM (inactive). The GI50 (SF-539) was > 100 µM (inactive), the GI50 (SK-MEL-5) was > 100 µM (inactive) and the GI50 (SK-OV-3) was > 100 µM (inactive). The GI50 (SN12C) was > 100 µM (inactive).
With `CCCc1cn2c(/C=N/NC(=N)N)c(-c3ccc(Cl)c([N+](=O)[O-])c3)nc2s1` the GI50 (A498) was 1.66 µM (inactive), the GI50 (A549) was 1.73 µM (inactive) and the GI50 (ACHN) was 1.69 µM (inactive). For the same compound, the GI50 (COLO 205) was 1.51 µM (inactive), the GI50 (HCT-116) was 1.22 µM (inactive) and the GI50 (HOP-62) was 1.88 µM (inactive). The GI50 (IGROV-1) was 1.89 µM (inactive), the GI50 (M14) was 1.91 µM (inactive) and the GI50 (MCF7) was 1.94 µM (inactive). For the same compound, the GI50 (MOLT-4) was 0.171 µM (active), the GI50 (NCI-H226) was 1.99 µM (inactive) and the GI50 (OVCAR-3) was 1.55 µM (inactive). For the same compound, the GI50 (PC-3) was 1.81 µM (inactive), the GI50 (SF-268) was 2.36 µM (inactive) and the GI50 (SF-295) was 1.66 µM (inactive). The GI50 (SF-539) was 1.88 µM (inactive), the GI50 (SK-MEL-5) was 1.67 µM (inactive) and the GI50 (SK-OV-3) was 1.5 µM (inactive). The GI50 (SN12C) was 1.84 µM (inactive).
`CCOC(=O)C(C)(C)Oc1ccc2c(-c3ccc(Cl)cc3)c(-c3ccc(Cl)cc3)c(=O)oc2c1` was tested, and the GI50 (A498) was > 100 µM (inactive), the GI50 (A549) was > 100 µM (inactive) and the GI50 (ACHN) was > 100 µM (inactive). For the same compound, the GI50 (COLO 205) was > 100 µM (inactive), the GI50 (DLD-1) was > 100 µM (inactive) and the GI50 (HCT-116) was 89.5 µM (inactive). For the same compound, the GI50 (HOP-62) was > 100 µM (inactive), the GI50 (IGROV-1) was > 100 µM (inactive) and the GI50 (M14) was > 100 µM (inactive). For the same compound, the GI50 (MOLT-4) was > 100 µM (inactive), the GI50 (NCI-H226) was 62.2 µM (inactive) and the GI50 (OVCAR-3) was > 100 µM (inactive). For the same compound, the GI50 (SF-268) was > 100 µM (inactive), the GI50 (SF-295) was > 100 µM (inactive) and the GI50 (SF-539) was > 100 µM (inactive). For the same compound, the GI50 (SK-MEL-5) was 98.2 µM (inactive) and the GI50 (SN12C) was > 100 µM (inactive).
`Nc1nc(O)c2c(ncn2CC(O)CO)n1` (stereo unspecified) was tested, and the GI50 (A498) was > 100 µM (inactive), the GI50 (A549) was > 100 µM (inactive) and the GI50 (ACHN) was > 100 µM (inactive). The GI50 (COLO 205) was > 100 µM (inactive), the GI50 (DLD-1) was > 100 µM (inactive) and the GI50 (HCT-116) was > 100 µM (inactive). The GI50 (HOP-62) was > 100 µM (inactive), the GI50 (IGROV-1) was > 100 µM (inactive) and the GI50 (M14) was > 100 µM (inactive). The GI50 (NCI-H226) was > 100 µM (inactive), the GI50 (OVCAR-3) was > 100 µM (inactive) and the GI50 (SF-268) was > 100 µM (inactive). For the same compound, the GI50 (SF-295) was > 100 µM (inactive), the GI50 (SF-539) was > 100 µM (inactive) and the GI50 (SK-MEL-5) was > 100 µM (inactive). For the same compound, the GI50 (SK-OV-3) was > 100 µM (inactive) and the GI50 (SN12C) was > 100 µM (inactive).
For `O=C1C=CC2(O[C@H](c3ccccc3)[C@@H](c3ccccc3)O2)C(SC(=O)c2ccccc2)C1` (stereo partly specified), the GI50 (A498) was 7.71 µM (inactive), the GI50 (A549) was 4.49 µM (inactive) and the GI50 (ACHN) was 1.37 µM (inactive). The GI50 (COLO 205) was 1.4 µM (inactive), the GI50 (HCT-116) was 0.355 µM (active) and the GI50 (HOP-62) was 1.38 µM (inactive). For the same compound, the GI50 (IGROV-1) was 1.52 µM (inactive), the GI50 (M14) was 1.33 µM (inactive) and the GI50 (MCF7) was 0.371 µM (active). For the same compound, the GI50 (MOLT-4) was 0.35 µM (active), the GI50 (NCI-H226) was 1.74 µM (inactive) and the GI50 (OVCAR-3) was 1.79 µM (inactive). The GI50 (PC-3) was 2.13 µM (inactive), the GI50 (SF-268) was 1.3 µM (inactive) and the GI50 (SF-295) was 2.91 µM (inactive). For the same compound, the GI50 (SF-539) was 1.75 µM (inactive), the GI50 (SK-MEL-5) was 1.47 µM (inactive) and the GI50 (SK-OV-3) was 2.32 µM (inactive). For the same compound, the GI50 (SN12C) was 2.33 µM (inactive).
With `CCOC(=O)C(C)(C)Oc1ccc2c(-c3ccccc3)cc(=O)oc2c1` the GI50 (A498) was 30.2 µM (inactive), the GI50 (A549) was 38.9 µM (inactive) and the GI50 (ACHN) was 40.2 µM (inactive). The GI50 (COLO 205) was 21.6 µM (inactive), the GI50 (DLD-1) was 25.3 µM (inactive) and the GI50 (HCT-116) was 35.6 µM (inactive). The GI50 (HOP-62) was 23.1 µM (inactive), the GI50 (IGROV-1) was 25.1 µM (inactive) and the GI50 (M14) was 36.6 µM (inactive). For the same compound, the GI50 (MOLT-4) was 20.2 µM (inactive), the GI50 (NCI-H226) was 33.3 µM (inactive) and the GI50 (OVCAR-3) was 33.9 µM (inactive). For the same compound, the GI50 (SF-268) was 45.8 µM (inactive), the GI50 (SF-295) was 40.9 µM (inactive) and the GI50 (SF-539) was 31.8 µM (inactive). For the same compound, the GI50 (SK-MEL-5) was 13.9 µM (inactive) and the GI50 (SN12C) was 37 µM (inactive).
